# In article PMC8881512 (Nature Communications, 2022):
# Where “and” joins values, the source holds several entries; their conditions need not be identical. Equal entries are not always repeated.
# Experiments:
# MCF-7 cells [1] = experiment: Colony-formation assay, MCF-7 (wild-type and ESR1 knock-in); format: cell-based, human; settings: for Relative colony formation: 1 μM 4OHT, 0.2 μM Fulvestrant, 2 μM VT02956, 2 μM VT02484, Fig.6g
# Method: […] The drugs were refreshed every 2–4 days. The colonies were then fixed with 4% paraformaldehyde for 15 min and stained with 0.1% crystal violet in 20% methanol solution for quantification.
# [2] = system: ER+ breast tumour organoids (BTO-02); experiment: 3D organoids drug response assay (CellTiter-Glo 3D); format: cell-based, human; settings: BTO-02; 12 days treatment with 0.2 µM Fulvestrant or 1 µM Tamoxifen; Fig.s6p
# Method: Breast tumour organoids were dissociated into single cells using TrypLE Express and counted with automated cell counter. Subsequently, 1000 cells were mixed in 10 μl BME type 2, seeded onto 96-well plate in triplicate and overlaid with 100 μl BC organoid medium (BOM) after BME gelation. Three days after organoids sphere formation, medium was removed and replaced by 100 μl of complete medium containing VT02956 (0, 0.04, 0.2, 1, 5 μM) or vehicle (DMSO). The drug-containing medium was refreshed every 3 days for additional 3–4 times. At the end of the treatment, the effect of the drugs on the tumour organoids, in terms of the organoids cell growth, was assayed with CellTiter-Glo 3D (Promega) according to the manufacturer’s instructions and were normalised to vehicle controls (0.5% DMSO content). The IC50 values was calculated in GraphPad Prism 8.
# T47D cells = experiment: Colony-formation assay, T47D (wild-type and ESR1 knock-in); format: cell-based; settings: 1 μM 4OHT, 0.2 μM Fulvestrant, 2 μM VT02956, 2 μM VT02484, 14 days, Fig.6h
# Method: For colony formation, cells were plated into 12-well plate with a constant density at the start date of treatment in triplicate with the indicated compounds and further cultured for 10 days (MCF-7) or 14 days (T47D). The drugs were refreshed every 2–4 days. The colonies were then fixed with 4% paraformaldehyde for 15 min and stained with 0.1% crystal violet in 20% methanol solution for quantification.
# MCF-7 cells [3] = experiment: Cell proliferation by cell counting, MCF-7; format: cell-based, human; settings: for Fold change of cell proliferation: 4OHT (0.5 μM), Fig.6f; for Cell proliferation (cell counting): 1 μM Entinostat for 4 days, Fig.1p
# Method: Cell proliferation rates were determined by automated cell counter. In brief, cells were plated at density of 0.1 million cells per well in six-well plate. Cell numbers were counted by the indicated time point as stated in the figure legends.
# [4] = system: contact between ESR1 promoter and super enhancer locus; experiment: 3C library targeted bait qPCR (3C-qPCR); format: cell-based, human; settings: MCF-7 LATS1/2 dKO + 1 µM VT107 for 2 days; relative to Parental; Fig.s5f
# Method: The 3C templates were generated by combining the protocols of 3C[40] with in-situ Hi-C[41]. Briefly, 10 million cells were collected, and the cell pellet was resuspended in DPBS with formaldehyde added at a final concentration of 1% at room temperature for 10 min. […] The nuclei were further washed once by in-situ lysis buffer and resuspended in 50 μl 0.5% SDS solution at 62 °C for exactly 10 min. The SDS was then neutralised by adding 145 μl H2O and 25 μl 10% Triton X-100 at 37 °C for 15 min. After adding 100 U DpnII (NEB, #R0543) with the presence of 1x NBEuffer 3.1, the restriction enzyme digestion was conducted in a thermomixer overnight at 37 °C. The restriction enzyme was then heat inactivated by incubating at 65 °C for 20 minutes. Then the digested chromatin was re-ligated by adding 900 μl Ligation Master Mix (1.3x NEB T4 Ligase Buffer, 1.1% X-100, 0.05% BSA and 2 U/μl T4 ligase) and incubated overnight at 16 °C with constant rotation. […] The 3C DNA was then purified with phenol-chloroform, precipitated and washed in 70% ethanol, and resuspend in Elution Buffer (1 mM Tris-HCl pH 8.0, 0.1 mM EDTA) and quantified with Nanodrop. […] Library concentration was measured with Qubit sdDNA HS Assay Kit and further qualified with Tapestation. […] After sequencing quality control with FastQC and trimming of adaptor sequence with Trim Galore, reads were processed in accordance with the Umi4C pipeline.
# [5] = system: ERα, YAP/TAZ phosphorylation in MCF-7 cells; experiment: Immunoblot analysis, MCF-7 cells; format: cell-based, human; settings: WT or LATS1/2 dKO MCF-7; 1 µM of VT-107 for 2 days; Supplementary Fig. 4k
# TEAD-VGLL3-NCOR2 complex = molecular target: T1, TEAD-VGLL3-NCOR2 complex (Homo sapiens, UniProt Q15562); experiment: TEAD2 co-immunoprecipitation with NCOR2 / VGLL3; format: cell-based; settings: MCF7 transfected cells; Fig. 2n
# T1 construct: expressed in transfected cells; host or cells: MCF-7
# T1 sequence (Q15562 whole entry, one chain of several): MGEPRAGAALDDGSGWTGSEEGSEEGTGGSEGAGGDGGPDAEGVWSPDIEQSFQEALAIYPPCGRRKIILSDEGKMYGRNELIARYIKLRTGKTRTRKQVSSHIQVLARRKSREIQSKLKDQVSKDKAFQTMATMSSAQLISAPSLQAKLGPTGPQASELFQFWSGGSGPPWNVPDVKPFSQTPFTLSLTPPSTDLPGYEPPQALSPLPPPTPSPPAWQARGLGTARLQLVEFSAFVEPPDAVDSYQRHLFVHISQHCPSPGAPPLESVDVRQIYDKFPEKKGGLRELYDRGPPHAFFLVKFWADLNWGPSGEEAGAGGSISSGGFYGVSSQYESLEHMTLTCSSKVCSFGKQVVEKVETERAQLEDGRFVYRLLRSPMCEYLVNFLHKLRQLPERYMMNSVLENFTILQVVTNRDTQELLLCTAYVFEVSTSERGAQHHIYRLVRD
# Method: For immunoprecipitations, cells were rinsed with ice-cold DPBS and then lysed in mild lysis buffer (150 mM NaCl, 50 mM Tris-Cl pH7.5, 0.5% Triton X-100) with protease inhibitors (Roche, #11873580001) and phosphatase inhibitors (Thermo Scientific, #88667) on ice for 30 min and centrifuged at 12,000 rpm for 10 min. Primary antibodies and Protein A/G magnetic beads (Pierce, #88803) were added to the supernatants and incubated with rotation for 3 h at 4 °C. Immunoprecipitants were washed four times with lysis buffer and were denatured by SDS-PAGE sample buffer and boiled for 5 min.
# [6] = system: YAP/TAZ target, ESR1 and ERα target gene mRNA in BTO-02; experiment: qPCR gene expression in breast tumour organoids BTO-02; format: cell-based, human; settings: BTO-02 starved for E2 for 3 days, then 100 nM E2 for 2 hours; Fig.s6o;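 further: relative mRNA abundance computed by the ΔCt approach from SYBR-based real-time qPCR, with GAPDH as internal housekeeping reference for normalisation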
# [7] = system: VGLL3, ESR1, YAP/TAZ target and ERα target gene mRNA in MCF-7 cells; experiment: qPCR gene expression in MCF-7 cells; settings: 1 μM Entinostat for 24 h, Fig.1o;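 further: SYBR Green real-time PCR, mRNA abundance computed by the ΔCt approach with GAPDH transcript as the internal normalisation control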
compound,measurement,setting,value
"C[C@]12CC[C@@H]3c4ccc(O)cc4C[C@@H](CCCCCCCCC[S+]([O-])CCCC(F)(F)C(F)(F)F)[C@H]3[C@@H]1CC[C@@H]2O (stereo partly drawn) [Fulvestrant, reference compound]",Relative colony formation,MCF-7 cells [1]; MCF-7 ERa D538G knock-in,0.58 and 0.62 and 0.53
same,Relative colony formation,MCF-7 cells [1]; MCF-7 ERa Y537S knock-in,0.68 and 0.73 and 0.65
same,Relative colony formation,MCF-7 cells [1]; MCF-7 WT,0.31 and 0.26 and 0.32
same,"Rel. growth (BTO-02, %)",[2],43.197% and 36.224% and 48.81%
same,Relative colony formation,T47D cells; T47D ERa Y537S knock-in,0.68 and 0.73 and 0.65
same,Relative colony formation,T47D cells; T47D WT,0.38 and 0.35 and 0.32
"CC(=O)c1c(C)c2cnc(Nc3ccc(N4CCNCC4)cn3)nc2n(C2CCCC2)c1=O [Palbociclib, reference compound]",Rel. colony (colony-formation assay),"MCF-7 cells [1]; MCF-7, VT02956 (2 μM), VT02484 (2 μM) or Palbociclib (0.1 μM) alone or in combinations, Fig.6d",0.58 and 0.54 and 0.51
same,"MCF-7 growth, palbociclib combined with LATS1/2 depletion","MCF-7 cells [3]; LATS1/2 deficient MCF-7, Palbociclib 0.1 or 0.3 µM for 7 days, Supplementary Fig. 8i",dramatically reduced MCF-7 growth
"CC/C(=C(\c1ccc(O)cc1)c1ccc(OCCN(C)C)cc1)c1ccccc1 [4OHT, 4-Hydroxytamoxifen, reference compound]",Relative colony formation,MCF-7 cells [1]; MCF-7 ERa D538G knock-in,0.71 and 0.61 and 0.66
same,Relative colony formation,MCF-7 cells [1]; MCF-7 ERa Y537S knock-in,0.79 and 0.83 and 0.77
same,Relative colony formation,MCF-7 cells [1]; MCF-7 WT,0.38 and 0.41 and 0.34
same,Relative colony formation,T47D cells; T47D ERa Y537S knock-in,0.79 and 0.83 and 0.77
same,Relative colony formation,T47D cells; T47D WT,0.41 and 0.38 and 0.44
same,Fold change of cell proliferation,MCF-7 cells [3]; MCF-7 ERα-Y537S knock-in + ctrl,1.082 and 1.041 and 1.122
same,Fold change of cell proliferation,MCF-7 cells [3]; MCF-7 ERα-Y537S knock-in + sgLATS1/2,0.2796 and 0.349 and 0.2955
same,Fold change of cell proliferation,MCF-7 cells [3]; MCF-7 wt + ctrl,0.5306 and 0.5714 and 0.5918
same,Fold change of cell proliferation,MCF-7 cells [3]; MCF-7 wt + sgLATS1/2,0.2041 and 0.1918 and 0.1796
CC/C(=C(\c1ccccc1)c1ccc(OCCN(C)C)cc1)c1ccccc1 [Tamoxifen],"Rel. growth (BTO-02, %)",[2],55.442% and 49.15% and 52.381%
VT-107,Rel. Contact (3C-qPCR) between ESR1 promoter and super enhancer,[4],0.5958 and 0.5632 and 0.5017
same,ERα level (immunoblot),[5],ameliorated the ERα downregulation caused by LATS1/2 dKO
same,TEAD2 Co-IP with VGLL3 / NCOR2,TEAD-VGLL3-NCOR2 complex,disrupted the interaction of TEAD with either VGLL3 or NCOR2
"C[C@]12CC[C@@H]3c4ccc(O)cc4CC[C@H]3[C@@H]1CC[C@@H]2O [E2, 17β-estradiol, reference compound]",GREB1 Rel. expression (BTO-02),[6],4.976 and 4.601 and 4.355
same,TFF1 Rel. expression (BTO-02),[6],6.504 and 6.591 and 6.279
"Nc1ccccc1NC(=O)c1ccc(CNC(=O)OCc2cccnc2)cc1 [Entinostat, reference compound]",ESR1 expression (qPCR),[7]; VGLL3 KO MCF-7,0.5015 and 0.486 and 0.4463
same,ESR1 expression (qPCR),[7]; Wild-type MCF-7,0.07832 and 0.08939 and 0.1138
same,Cell proliferation (cell counting),MCF-7 cells [3]; VGLL3 KO MCF-7,10.42 and 9.55 and 11.21
same,Cell proliferation (cell counting),MCF-7 cells [3]; Wild-type MCF-7,4.59 and 3.87 and 4.88
